Data as given in ChEMBL document CHEMBL1150481, “The inhibition of glutamate racemase by” (Bioorg Med Chem Lett, 1997).

T1: Glutamate racemase (Lactobacillus fermentum) (UniProt Q03469)
T1 sequence (whole entry): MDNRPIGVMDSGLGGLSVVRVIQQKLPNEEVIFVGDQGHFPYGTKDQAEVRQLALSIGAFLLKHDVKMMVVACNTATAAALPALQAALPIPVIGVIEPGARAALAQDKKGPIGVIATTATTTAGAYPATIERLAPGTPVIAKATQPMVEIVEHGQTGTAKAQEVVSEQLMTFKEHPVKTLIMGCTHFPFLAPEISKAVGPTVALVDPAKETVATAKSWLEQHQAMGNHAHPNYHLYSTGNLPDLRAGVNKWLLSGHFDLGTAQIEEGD

T2: Glutamate racemase (Lactobacillus fermentum, UniProt Q03469)
T2 sequence (Q03469 whole entry): T1 sequence (whole entry)

B1: Glutamate racemase (Lactobacillus fermentum), Q03469 (protein)
chain: T1 sequence (whole entry)

Assays:
[1] = biological target: T1, Glutamate racemase (Lactobacillus fermentum); assay: Enzyme kinetic constant for Glutamate racemase and expressed as Kcat
[2] = Ratio of kcat to that of KM was determined
Glutamate racemase [3] = biological target: T2, Glutamate racemase; assay: Inhibition towards glutamate racemase from Lactobacillus fermenti was determined and expressed as KI; set-up: species or system Limosilactobacillus fermentum
[4] = Inhibition towards diaminopimelate (DAP) epimerase was determined
[5] = Inhibition towards diaminopimelate (DAP) epimerase was determined and expressed as KI
Glutamate racemase [6] = biological target: T2, Glutamate racemase; assay: Inhibition towards glutamate racemase was determined and expressed as KI; set-up: species or system Limosilactobacillus fermentum
[7] = substrate: O=C(O)CCC(=O)C(=O)O; assay: Enzyme kinetic constant for Glutamate racemase and expressed as Km
[8] = substrate: N[C@H](CCC(=O)O)C(=O)O; settings: Limosilactobacillus fermentum

Molecule	k cat/Km [2]	IC50 [4]	further results
O=C(O)CCC(=O)C(=O)O	3200 M⁻¹ s⁻¹	–	k cat [1]: 0.18 s⁻¹
N[C@@H](CCC(=O)O)C(=O)O [GLUTAMIC ACID]	30 M⁻¹ s⁻¹	–	Ki (Glutamate racemase [3]): 28 µM
N[C@H](C(=O)O)[C@@H](F)CC[C@H](N)C(=O)O	–	4 µM	–
N[C@@H](CC[C@@H](F)[C@@H](N)C(=O)O)C(=O)O	–	25 µM	–
NC(CCCC(NO)C(=O)O)C(=O)O (centres undefined)	–	–	Ki [5]: 5.6 µM
N[C@H](C(=O)O)[C@H](F)CC[C@H](N)C(=O)O	–	10 µM	–
N[C@@H](CC[C@H](F)[C@@H](N)C(=O)O)C(=O)O	–	8 µM	–
N[C@H](CCC(=O)O)C(=O)O [D-GLUTAMATE]	3700 M⁻¹ s⁻¹	–	Ki (Glutamate racemase [3]): 56 µM; Ki (Glutamate racemase [6]): 190 µM
B1	–	–	Km [7]: 57 µM; Km [8]: 300 µM
